According to patent US12146004B2, “Polymyxin compounds and uses thereof” (priority 2014, dated 2024):
In brackets after ≈: the same amount, converted by molar mass. Numbered stars: 1 amine (or outer) side, 2 acyl side, 3 side chain; on linkers, the order of the positions; unused ones are H or OH. Bridge positions count the residues as written; N and C are the ends. Square brackets hold non-standard residues; d marks the D form. Peptide text beside a SMILES is read from it. * marks the point of attachment. ξ: configuration not given here. X11 = O=C([C@@H](Cc1ccc(-c2ccncc2)cc1)N[*:1])[*:2]; Octanoyl(6-Me) = CCC(C)CCCCC(=O)*; dCha = N[C@H](CC1CCCCC1)C(=O)O; Thr(3ξ) = CC(O)[C@H](N)C(=O)O; Dab = NCC[C@H](N)C(=O)O

Legend:
Format in all cases: cell-based
[1] = test system: HK-2 cells
Excerpt: Values are reported relative to Polymyxin B.

[2] = test system: Acinetobacter baumannii
Summary of the method: (§1)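 MIC (μg/mL) by susceptibility testing against up to nine strains per species, including strains with elevated Polymyxin MICs and resistant isolates.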

[3] = test system: Escherichia coli
Summary of the method: as §1

[4] = test system: Klebsiella pneumoniae
Summary of the method: as §1

[5] = test system: Pseudomonas aeruginosa
Summary of the method: as §1

HK-2 IC50 [1] [µg/mL] | MIC A. baumanii 053 [2] [µg/mL] | MIC A. baumanii 056 [2] [µg/mL] | MIC A. baumanii ATCC BAA-747 [2] [µg/mL] | MIC E. coli 058 [3] [µg/mL] | MIC E. coli 059 [3] [µg/mL] | MIC E. coli 060 [3] [µg/mL] | MIC E. coli 061 [3] [µg/mL] | MIC E. coli ATCC 25922 [3] [µg/mL] | MIC K. pneumoniae 062 [4] [µg/mL] | MIC K. pneumoniae 063 [4] [µg/mL] | MIC K. pneumoniae 064 [4] [µg/mL] | MIC K. pneumoniae 065 [4] [µg/mL] | MIC K. pneumoniae 066 [4] [µg/mL] | MIC K. pneumoniae 067 [4] [µg/mL] | MIC K. pneumoniae ATCC 4352 [4] [µg/mL] | MIC P. aeruginosa 068 [5] [µg/mL] | MIC P. aeruginosa 070 [5] [µg/mL] | MIC P. aeruginosa ATCC 27853 [5] [µg/mL] | MIC A. baumanii NCTC 13424 [2] [µg/mL] | Compound | other results
17 | 64 (≈ 52.9 µM) | 32 (≈ 26.5 µM) | 0.5 (≈ 0.413 µM) | 2 (≈ 1.65 µM) | 2 (≈ 1.65 µM) | 4 (≈ 3.31 µM) | 8 (≈ 6.61 µM) | 0.5 (≈ 0.413 µM) | 16 (≈ 13.2 µM) | 32 (≈ 26.5 µM) | 4 (≈ 3.31 µM) | 1 (≈ 0.827 µM) | 4 (≈ 3.31 µM) | 64 (≈ 52.9 µM) | 0.5 (≈ 0.413 µM) | 4 (≈ 3.31 µM) | 4 (≈ 3.31 µM) | 1 (≈ 0.827 µM) |  | CCC(C)CCCCC(=O)N[C@@H](CCN)C(=O)N[C@H](C(=O)N[C@@H](CCN)C(=O)N[C@H]1CCNC(=O)[C@H](C(C)O)NC(=O)[C@H](CCN)NC(=O)[C@H](CCN)NC(=O)[C@H](CC(C)C)NC(=O)[C@@H](CC2CCCCC2)NC(=O)[C@H](CCN)NC1=O)C(C)O (stereo partly drawn) [Example 22] ({Octanoyl(6-Me)}-[Dab][Thr(3ξ)][Dab][Dab][Dab][dCha]L[Dab][Dab][Thr(3ξ)]; lactam 4-C) | 
152 | >64 | 64 (≈ 56.6 µM) | 0.5 (≈ 0.442 µM) | 4 (≈ 3.54 µM) |  |  | 16 (≈ 14.2 µM) | 0.25 (≈ 0.221 µM) |  | 16 (≈ 14.2 µM) |  | 0.5 (≈ 0.442 µM) |  |  | 0.125 (≈ 0.111 µM) | 1 (≈ 0.885 µM) | 2 (≈ 1.77 µM) | 0.25 (≈ 0.221 µM) | 0.25 (≈ 0.221 µM) | CC(C)C[C@@H]1NC(=O)[C@@H](CC2CCCCC2)NC(=O)[C@H](CCN)NC(=O)[C@@H](NC(=O)[C@H](CN)NC(=O)[C@@H](NC(=O)C(CCN)Cc2ccccc2)C(C)O)CCNC(=O)[C@H]([C@@H](C)O)NC(=O)[C@H](CCN)NC(=O)[C@H](CCN)NC1=O (single isomer, unassigned; isomer 2) [Example 35, 4-amino-2-benzylbutanoyl L-Thr-L-Dap-polymyxin [D-cyclohexylalanine]-6 heptapeptide. Isomer 2] | MIC E. coli NCTC 9001 [3]: 0.06 µg/mL (≈ 0.0531 µM); MIC K. pneumoniae ATCC 13882 [4]: 0.06 µg/mL (≈ 0.0531 µM); MIC P. aeruginosa CCUG 59347 [5]: 0.25 µg/mL (≈ 0.221 µM)
10 |  |  | 0.5 (≈ 0.41 µM) | 4 (≈ 3.28 µM) |  |  |  | 1 (≈ 0.819 µM) |  |  |  | 1 (≈ 0.819 µM) |  |  | 0.5 (≈ 0.41 µM) |  |  | 1 (≈ 0.819 µM) |  | CC(C)CC(CN)C(=O)N[C@H](C(=O)N[C@@H](CN)C(=O)N[C@H]1CCNC(=O)[C@H]([C@@H](C)O)NC(=O)[C@H](CCN)NC(=O)[C@H](CCN)NC(=O)[C@H](CC(C)C)NC(=O)[C@@H](Cc2ccc(-c3ccc(C(F)(F)F)cc3)cc2)NC(=O)[C@H](CCN)NC1=O)C(C)O (single isomer, unassigned; isomer 1) [Example 20, 2-Aminomethyl-4-methyl pentanoyl polymyxin L-Thr-L-Dap-polymyxin [D-{4-(4-trifluoromethyl)phenyl} Phe]-6]heptapeptide. Isomer 1] | 
3 | 4 (≈ 3.2 µM) | 2 (≈ 1.6 µM) | 1 (≈ 0.801 µM) | 2 (≈ 1.6 µM) | 1 (≈ 0.801 µM) | 2 (≈ 1.6 µM) | 4 (≈ 3.2 µM) | 1 (≈ 0.801 µM) | 4 (≈ 3.2 µM) |  | 1 (≈ 0.801 µM) | 1 (≈ 0.801 µM) | 0.5 (≈ 0.4 µM) | 8 (≈ 6.41 µM) | 1 (≈ 0.801 µM) | 2 (≈ 1.6 µM) | 2 (≈ 1.6 µM) | 1 (≈ 0.801 µM) |  | CCCCCCCCC1CNCC1C(=O)N[C@H](C(=O)N[C@@H](CCN)C(=O)N[C@H]1CCNC(=O)[C@H]([C@@H](C)O)NC(=O)[C@H](CCN)NC(=O)[C@H](CCN)NC(=O)[C@H](CC(C)C)NC(=O)[C@@H](Cc2ccc(-c3ccccc3)cc2)NC(=O)[C@H](CCN)NC1=O)C(C)O (single isomer, unassigned; isomer 2) [Example 8, trans-4-octylpyrrolidine-3-carbonyl polymyxin [D-(4-phenyl)Phe]-6] nonapeptide. Isomer 2] | 
34 | 64 (≈ 53.7 µM) | 4 (≈ 3.35 µM) | 2 (≈ 1.68 µM) | 8 (≈ 6.71 µM) | 8 (≈ 6.71 µM) | 16 (≈ 13.4 µM) | 32 (≈ 26.8 µM) | 0.5 (≈ 0.419 µM) | >64 | >64 | 32 (≈ 26.8 µM) | 32 (≈ 26.8 µM) |  | >64 | 0.5 (≈ 0.419 µM) | 4 (≈ 3.35 µM) | 4 (≈ 3.35 µM) | 1 (≈ 0.839 µM) |  | CC(C)CC1CNCC(C(=O)N[C@H](C(=O)N[C@@H](CN)C(=O)N[C@H]2CCNC(=O)[C@H]([C@@H](C)O)NC(=O)[C@H](CCN)NC(=O)[C@H](CCN)NC(=O)[C@H](CC(C)C)NC(=O)[C@@H](Cc3ccc(-c4ccccc4)cc3)NC(=O)[C@H](CCN)NC2=O)C(C)O)C1 (single isomer, unassigned; isomer 1) [Example 3, (trans-5-(isobutyl-piperidine)-3-carbonyl L-Thr-L-Dap-polymyxin [D-(4-phenyl)Phe]-6] heptapeptide. Isomer 1] | 
99 | 32 (≈ 28.7 µM) | 16 (≈ 14.3 µM) | 0.125 (≈ 0.112 µM) | 2 (≈ 1.79 µM) |  |  | 16 (≈ 14.3 µM) | 0.25 (≈ 0.224 µM) |  | 32 (≈ 28.7 µM) |  | 4 (≈ 3.58 µM) |  |  | 0.125 (≈ 0.112 µM) | 4 (≈ 3.58 µM) | 4 (≈ 3.58 µM) | 0.25 (≈ 0.224 µM) | 0.06 (≈ 0.0537 µM) | CC(C)C[C@@H]1NC(=O)[C@@H](CC2CCCCC2)NC(=O)[C@H](CCN)NC(=O)[C@@H](NC(=O)[C@H](CN)NC(=O)[C@@H](NC(=O)C(CN)Cc2ccccc2)C(C)O)CCNC(=O)[C@H]([C@@H](C)O)NC(=O)[C@H](CCN)NC(=O)[C@H](CCN)NC1=O (single isomer, unassigned; isomer 2) [Example 34, 3-amino-2-benzylpropanoyl L-Thr-L-Dap-polymyxin [D-cyclohexylalanine]-6 heptapeptide. Isomer 2] | MIC E. coli NCTC 9001 [3]: 0.125 µg/mL (≈ 0.112 µM); MIC K. pneumoniae ATCC 13882 [4]: 0.125 µg/mL (≈ 0.112 µM); MIC P. aeruginosa CCUG 59347 [5]: 0.25 µg/mL (≈ 0.224 µM)
7 | >32 | >32 | 1 (≈ 0.781 µM) |  |  | 8 (≈ 6.25 µM) | 32 (≈ 25 µM) | 1 (≈ 0.781 µM) | >64 | >64 | 32 (≈ 25 µM) |  | 32 (≈ 25 µM) | >32 | 1 (≈ 0.781 µM) | 32 (≈ 25 µM) | >32 | 1 (≈ 0.781 µM) |  | CCC(C)CCCCC(=O)N[C@@H](CCN)C(=O)N[C@H](C(=O)N[C@@H](CCN)C(=O)N[C@H]1CCNC(=O)[C@H]([C@@H](C)O)NC(=O)[C@H](CCN)NC(=O)[C@H](CCN)NC(=O)[C@H](CC(C)C)NC(=O)[C@@H](Cc2ccc(-c3ccncc3)cc2)NC(=O)[C@H](CCN)NC1=O)C(C)O (stereo partly drawn) [Example 1] ({Octanoyl(6-Me)}-[Dab][Thr(3ξ)][Dab][Dab][Dab][X11]L[Dab][Dab]T; lactam 4-C) | 
75 | 64 (≈ 57.7 µM) | 32 (≈ 28.9 µM) | 0.25 (≈ 0.226 µM) | 2 (≈ 1.8 µM) |  |  | 16 (≈ 14.4 µM) | 0.25 (≈ 0.226 µM) |  | 64 (≈ 57.7 µM) |  | 2 (≈ 1.8 µM) |  |  | 0.03 (≈ 0.0271 µM) | 8 (≈ 7.22 µM) | 8 (≈ 7.22 µM) | 0.25 (≈ 0.226 µM) | 0.125 (≈ 0.113 µM) | CC(C)C[C@@H]1NC(=O)[C@@H](CC2CCCCC2)NC(=O)[C@H](CCN)NC(=O)[C@@H](NC(=O)[C@H](CN)NC(=O)[C@@H](NC(=O)CC(N)C2CCCCC2)C(C)O)CCNC(=O)[C@H]([C@@H](C)O)NC(=O)[C@H](CCN)NC(=O)[C@H](CCN)NC1=O (single isomer, unassigned; isomer 2) [Example 33, 3-amino-3-cyclohexylpropanoyl L-Thr-L-Dap-polymyxin [D-cyclohexylalanine]-6 heptapeptide. Isomer 2] | MIC E. coli NCTC 9001 [3]: 0.125 µg/mL (≈ 0.113 µM); MIC K. pneumoniae ATCC 13882 [4]: 0.5 µg/mL (≈ 0.451 µM); MIC P. aeruginosa CCUG 59347 [5]: 0.5 µg/mL (≈ 0.451 µM)
